In patent publication US8961927B2, “Agents for magnetic imaging method” (Bracco Imaging S.p.A., priority 2002, dated 2015):

What was measured:
Assay type in all cases: cell-based
[1] = test system: human hepatoma cells HTC; test: Differential uptake in rat hepatocytes and human hepatoma cells HTC, time course; conditions: substrate 1.3 mM, 37° C. in EBSS
Description: This experiment has been carried out as follows:
Rat hepatocytes were cultured in M199 medium supplemented with 2 mg/ml bovine serum albumin (BSA), 3.6 mg/ml Hepes, 100 U/ml penicillin, 100 U/μg streptomycin, and 10 nmol/insulin; HTC cells were cultured in RPMI 1640 medium supplemented with 10% foetal bovine serum, 100 U/ml penicillin and 100 U/μg streptomycin.
The uptake experiments were performed in 5 ml EBSS, Earl's Balanced Salt Solution, (CaCl2 0.266 g/l; KCl 0.4 g/l; NaCl 6.8 g/l; glucose 1 g/l; MgSO4 0.204 g/l; NaH2PO4 0.144 g/l; NaHCO3 2.2 g/l).
[…] The substrate concentration was for both cell lines 1.3 mM.

[2] = test system: panel of cancer cell lines; test: Uptake in a panel of cancer cell lines compared with healthy hepatocytes, compound of Example 3; conditions: substrate 5.1 mM; after 2 hours; FIG. 3
Description: The substrate concentration was 5.1 mM and the uptake was measured after 2 hours from the administration of the test compound.

[3] = test system: human hepatoma cells HepG2; test: Differential uptake in hepatocytes and hepatoma cell lines HepG2, EBSS without glucose, compound of Example 3; conditions: substrate 5.1 mM, time course, FIG. 2
Description: The cells were cultured as in Example 12 above. The uptake experiments were performed in 5 ml EBSS without glucose to avoid competition between this compound and the test compound.
The substrate concentration was 5.1 mM and a time course analysis was done.

uptake by the human hepatoma cells HTC relative to the one in hepatocytes ([1]; after 0.5 hour) | uptake by the human hepatoma cells HTC relative to the one in hepatocytes ([1]; after six hours) | uptake by the human hepatoma cells HTC relative to the one in hepatocytes ([1]; at 2 hours) | uptake of Gd in cancer cell lines compared with healthy hepatocytes [2] | uptake in human hepatoma cells HepG2 compared with hepatocyte [3] | Substance
⅓ | more than 4 times | more than 3 times | – | – | Gadolinium Complex of [4-(1,6,10-triazaundecan)-phenyl-aminocarbonylmethyl]-1,4,7,10-tetraazacyclododecan-4,7,10-triacetic acid [Example 11]
– | – | – | increased in all the cancer cell lines | higher uptake | Gadolinium Complex of 3,6,9-triaza-3,6,9-tricarboxymethylundecanoic acid bis-glucopyranosylamide [Example 3]
